Test results as given in the kinase profiling compilation of Christmann-Franck et al. (2016).

Columns and labels:
Assay in all cases: KINOMEscan competition binding
Details in all cases: compound 1.0 µM
EIF2AK2 (human) = EIF2AK2 (human) (UniProt P19525)
[1] = test system: FLT3 (human), P36888 [K663Q]
CLK4 (human) = CLK4 (human) (UniProt Q9HAZ1)
WEE1 (human) = WEE1 (human) (UniProt P30291)
CAMKK2 (human) = CAMKK2 (human) (UniProt Q96RR4)
FES (human) = FES (human) (UniProt P07332)
ACVR2B (human) = ACVR2B (human) (UniProt Q13705)
PLK4 (human) = PLK4 (human) (UniProt O00444)
[2] = test system: ABL1 (human), P00519 [E255K]
Chain of ABL1 (human), P00519 [E255K] (P00519 whole entry E255K, looked up): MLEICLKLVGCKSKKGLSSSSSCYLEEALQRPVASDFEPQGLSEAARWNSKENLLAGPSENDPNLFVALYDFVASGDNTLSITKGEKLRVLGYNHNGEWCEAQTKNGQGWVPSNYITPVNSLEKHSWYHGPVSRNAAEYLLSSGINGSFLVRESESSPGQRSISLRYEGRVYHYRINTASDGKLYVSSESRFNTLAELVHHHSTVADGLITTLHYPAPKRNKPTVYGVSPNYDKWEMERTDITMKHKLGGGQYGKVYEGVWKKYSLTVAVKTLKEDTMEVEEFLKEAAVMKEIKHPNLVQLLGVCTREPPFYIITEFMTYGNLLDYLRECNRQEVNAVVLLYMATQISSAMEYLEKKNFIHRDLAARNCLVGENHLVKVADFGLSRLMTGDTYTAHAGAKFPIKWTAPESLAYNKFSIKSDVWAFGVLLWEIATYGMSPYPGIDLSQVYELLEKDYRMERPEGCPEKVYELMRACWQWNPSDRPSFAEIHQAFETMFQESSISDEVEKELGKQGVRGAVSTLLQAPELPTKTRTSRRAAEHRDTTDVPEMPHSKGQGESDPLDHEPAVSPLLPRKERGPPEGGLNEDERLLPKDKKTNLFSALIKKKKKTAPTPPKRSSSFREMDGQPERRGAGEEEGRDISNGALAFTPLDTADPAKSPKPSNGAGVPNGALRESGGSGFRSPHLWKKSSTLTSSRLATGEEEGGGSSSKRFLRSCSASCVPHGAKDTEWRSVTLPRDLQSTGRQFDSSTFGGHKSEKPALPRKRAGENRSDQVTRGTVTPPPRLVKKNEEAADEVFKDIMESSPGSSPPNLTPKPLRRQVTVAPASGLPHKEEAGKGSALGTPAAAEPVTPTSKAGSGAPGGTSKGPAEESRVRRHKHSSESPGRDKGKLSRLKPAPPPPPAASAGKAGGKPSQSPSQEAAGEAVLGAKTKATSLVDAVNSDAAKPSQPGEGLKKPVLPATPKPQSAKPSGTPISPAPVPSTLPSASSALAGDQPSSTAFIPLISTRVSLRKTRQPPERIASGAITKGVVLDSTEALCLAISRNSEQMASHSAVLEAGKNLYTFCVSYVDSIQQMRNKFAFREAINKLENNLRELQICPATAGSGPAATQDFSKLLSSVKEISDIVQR

SIK3 (human) = SIK3 (human) (UniProt Q9Y2K2)
MAP3K12 (human) = MAP3K12 (human) (UniProt Q12852)
Chain of MAP3K12 (human) (Q12852 whole entry, looked up): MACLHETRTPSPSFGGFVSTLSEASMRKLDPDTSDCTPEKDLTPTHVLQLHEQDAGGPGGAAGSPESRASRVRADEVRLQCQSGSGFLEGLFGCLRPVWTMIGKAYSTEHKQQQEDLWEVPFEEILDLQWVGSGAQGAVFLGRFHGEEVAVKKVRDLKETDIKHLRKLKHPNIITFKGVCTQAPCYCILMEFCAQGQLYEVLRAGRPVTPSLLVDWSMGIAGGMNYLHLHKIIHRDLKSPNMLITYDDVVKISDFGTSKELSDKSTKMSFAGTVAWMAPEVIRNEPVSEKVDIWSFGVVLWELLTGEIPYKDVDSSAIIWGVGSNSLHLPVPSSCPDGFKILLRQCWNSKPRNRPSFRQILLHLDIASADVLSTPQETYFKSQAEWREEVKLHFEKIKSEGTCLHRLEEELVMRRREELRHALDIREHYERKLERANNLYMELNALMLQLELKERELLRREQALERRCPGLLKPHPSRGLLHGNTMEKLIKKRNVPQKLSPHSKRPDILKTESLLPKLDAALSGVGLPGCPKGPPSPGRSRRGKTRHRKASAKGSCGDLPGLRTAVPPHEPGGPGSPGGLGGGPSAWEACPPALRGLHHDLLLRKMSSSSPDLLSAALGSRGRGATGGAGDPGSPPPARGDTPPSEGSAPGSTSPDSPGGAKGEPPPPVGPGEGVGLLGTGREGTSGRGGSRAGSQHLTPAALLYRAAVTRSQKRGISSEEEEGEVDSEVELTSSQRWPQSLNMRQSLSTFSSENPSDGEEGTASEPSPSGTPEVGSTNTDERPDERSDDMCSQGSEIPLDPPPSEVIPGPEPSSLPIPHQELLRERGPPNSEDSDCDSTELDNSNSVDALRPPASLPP

PTK2 (human) = PTK2 (human) (UniProt Q05397)
RPS6KB1 (human) = RPS6KB1 (human) (UniProt P23443)
EPHA4 (human) = EPHA4 (human) (UniProt P54764)
MAP3K15 (human) = MAP3K15 (human) (UniProt Q6ZN16)
Chain of MAP3K15 (human) (Q6ZN16 whole entry, looked up): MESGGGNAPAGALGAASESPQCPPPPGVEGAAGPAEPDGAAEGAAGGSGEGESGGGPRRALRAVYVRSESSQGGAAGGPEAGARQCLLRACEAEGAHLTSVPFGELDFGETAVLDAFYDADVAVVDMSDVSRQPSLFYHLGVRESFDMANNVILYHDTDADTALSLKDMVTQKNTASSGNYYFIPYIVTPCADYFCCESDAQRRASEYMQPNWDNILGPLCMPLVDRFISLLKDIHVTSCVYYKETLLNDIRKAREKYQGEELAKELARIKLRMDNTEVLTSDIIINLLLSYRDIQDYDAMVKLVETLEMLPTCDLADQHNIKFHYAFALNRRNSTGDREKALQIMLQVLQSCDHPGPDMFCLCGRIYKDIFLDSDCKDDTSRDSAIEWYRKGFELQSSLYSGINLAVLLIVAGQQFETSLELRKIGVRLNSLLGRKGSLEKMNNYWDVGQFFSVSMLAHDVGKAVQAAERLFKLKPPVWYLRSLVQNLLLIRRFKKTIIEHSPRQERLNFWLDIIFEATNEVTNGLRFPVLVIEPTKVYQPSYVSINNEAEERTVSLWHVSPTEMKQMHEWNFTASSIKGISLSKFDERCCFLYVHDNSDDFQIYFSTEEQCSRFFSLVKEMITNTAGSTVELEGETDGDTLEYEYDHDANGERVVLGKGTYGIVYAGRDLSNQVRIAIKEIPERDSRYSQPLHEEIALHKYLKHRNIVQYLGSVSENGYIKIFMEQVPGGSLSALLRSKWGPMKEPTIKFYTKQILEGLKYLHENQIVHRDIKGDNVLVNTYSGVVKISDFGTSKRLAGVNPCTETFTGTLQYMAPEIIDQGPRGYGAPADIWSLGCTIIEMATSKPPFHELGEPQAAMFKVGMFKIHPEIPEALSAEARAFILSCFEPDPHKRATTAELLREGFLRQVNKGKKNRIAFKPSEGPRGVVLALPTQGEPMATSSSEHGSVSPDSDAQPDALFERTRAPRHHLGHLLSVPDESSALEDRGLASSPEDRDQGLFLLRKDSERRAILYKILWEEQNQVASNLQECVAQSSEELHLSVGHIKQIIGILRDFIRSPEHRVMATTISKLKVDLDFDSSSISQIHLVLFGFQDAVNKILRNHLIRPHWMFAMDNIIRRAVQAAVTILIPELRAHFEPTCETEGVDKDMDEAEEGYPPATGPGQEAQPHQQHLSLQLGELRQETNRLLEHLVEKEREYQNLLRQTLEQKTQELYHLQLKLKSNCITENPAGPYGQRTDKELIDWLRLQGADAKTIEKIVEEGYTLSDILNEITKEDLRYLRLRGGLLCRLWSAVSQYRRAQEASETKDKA

MYLK4 (human) = MYLK4 (human) (UniProt Q86YV6)
MARK4 (human) = MARK4 (human) (UniProt Q96L34)
MAPK14 (human) = MAPK14 (human) (UniProt Q16539)
GAK (human) = GAK (human) (UniProt O14976)
RIPK2 (human) = RIPK2 (human) (UniProt O43353)
MERTK (human) = MERTK (human) (UniProt Q12866)
BRSK2 (human) = BRSK2 (human) (UniProt Q8IWQ3)
NEK11 (human) = NEK11 (human) (UniProt Q8NG66)
TAOK2 (human) = TAOK2 (human) (UniProt Q9UL54)
EIF2AK1 (human) = EIF2AK1 (human) (UniProt Q9BQI3)
MAPK4 (human) = MAPK4 (human) (UniProt P31152)
MYLK (human) = MYLK (human) (UniProt Q15746)
LATS2 (human) = LATS2 (human) (UniProt Q9NRM7)
MAPK10 (human) = MAPK10 (human) (UniProt P53779)
[3] = biological target: TYK2 JH1 catalytic (human) (UniProt P29597)
IGF1R (human) = IGF1R (human) (UniProt P08069)
MAPK11 (human) = MAPK11 (human) (UniProt Q15759)
[4] = test system: FGFR3 (human), P22607 [G697C]
GRK1 (human) = GRK1 (human) (UniProt Q15835)
LYN (human) = LYN (human) (UniProt P07948)
[5] = test system: KIT (human), P10721 [V559D]
Chain of KIT (human), P10721 [V559D] (P10721 whole entry V559D, looked up): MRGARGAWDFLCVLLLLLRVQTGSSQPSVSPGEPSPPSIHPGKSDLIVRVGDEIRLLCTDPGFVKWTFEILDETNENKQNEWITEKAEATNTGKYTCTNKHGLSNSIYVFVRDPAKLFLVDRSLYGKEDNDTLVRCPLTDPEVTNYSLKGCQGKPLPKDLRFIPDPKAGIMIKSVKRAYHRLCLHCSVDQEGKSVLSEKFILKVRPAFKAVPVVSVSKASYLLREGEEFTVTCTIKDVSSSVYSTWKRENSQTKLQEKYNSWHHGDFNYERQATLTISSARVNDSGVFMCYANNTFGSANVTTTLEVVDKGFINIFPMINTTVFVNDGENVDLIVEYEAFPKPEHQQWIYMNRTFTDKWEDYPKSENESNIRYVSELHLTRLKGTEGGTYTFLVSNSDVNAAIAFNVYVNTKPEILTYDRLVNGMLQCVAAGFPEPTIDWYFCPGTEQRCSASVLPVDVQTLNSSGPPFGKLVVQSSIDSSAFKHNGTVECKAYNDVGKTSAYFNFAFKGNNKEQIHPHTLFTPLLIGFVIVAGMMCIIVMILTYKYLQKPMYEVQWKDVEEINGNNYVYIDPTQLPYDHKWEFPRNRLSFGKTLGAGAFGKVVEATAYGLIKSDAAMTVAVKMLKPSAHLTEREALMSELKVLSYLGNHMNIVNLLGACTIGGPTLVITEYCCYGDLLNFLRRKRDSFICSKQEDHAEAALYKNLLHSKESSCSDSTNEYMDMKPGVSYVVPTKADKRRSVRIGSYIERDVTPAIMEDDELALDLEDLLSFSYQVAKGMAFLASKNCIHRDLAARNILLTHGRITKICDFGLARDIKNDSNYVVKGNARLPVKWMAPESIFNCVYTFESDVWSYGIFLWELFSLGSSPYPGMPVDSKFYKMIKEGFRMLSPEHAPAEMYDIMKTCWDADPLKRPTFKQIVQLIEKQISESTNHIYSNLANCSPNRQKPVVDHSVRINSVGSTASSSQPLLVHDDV

ERBB3 (human) = ERBB3 (human) (UniProt P21860)
EPHB3 (human) = EPHB3 (human) (UniProt P54753)
CDK19 (human) = CDK19 (human) (UniProt Q9BWU1)
[6] = biological target: JAK1 JH1 catalytic (human) (UniProt P23458)
PTK2B (human) = PTK2B (human) (UniProt Q14289)
CDKL2 (human) = CDKL2 (human) (UniProt Q92772)
[7] = test system: EGFR (human), P00533 [T790M/L858R]

Chain of CLK4 (human) (Q9HAZ1 whole entry, looked up): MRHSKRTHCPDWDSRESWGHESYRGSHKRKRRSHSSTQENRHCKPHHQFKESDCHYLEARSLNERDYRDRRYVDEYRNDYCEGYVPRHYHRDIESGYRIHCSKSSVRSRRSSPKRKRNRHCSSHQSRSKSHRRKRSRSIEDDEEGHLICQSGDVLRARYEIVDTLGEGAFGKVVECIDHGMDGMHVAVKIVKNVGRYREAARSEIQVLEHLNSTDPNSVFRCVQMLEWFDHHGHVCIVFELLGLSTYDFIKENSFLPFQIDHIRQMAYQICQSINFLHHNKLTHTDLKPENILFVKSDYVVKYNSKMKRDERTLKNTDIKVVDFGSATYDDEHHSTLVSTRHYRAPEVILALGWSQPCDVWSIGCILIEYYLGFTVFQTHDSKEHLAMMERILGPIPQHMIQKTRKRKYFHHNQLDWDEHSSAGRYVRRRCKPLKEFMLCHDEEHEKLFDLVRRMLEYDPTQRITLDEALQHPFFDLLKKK

COCCNCCCn1c(C(=O)CF)c(-c2ccc(C)cc2)c2c(N)ncnc21
kinase still bound, per cent of control (EIF2AK2 (human)): 90%
kinase still bound, per cent of control [1]: 100%
kinase still bound, per cent of control (CLK4 (human)): 91%
kinase still bound, per cent of control (WEE1 (human)): 94%
kinase still bound, per cent of control (CAMKK2 (human)): 100%
kinase still bound, per cent of control (FES (human)): 100%
kinase still bound, per cent of control (ACVR2B (human)): 95%
kinase still bound, per cent of control (PLK4 (human)): 100%
kinase still bound, per cent of control [2]: 90%
kinase still bound, per cent of control (SIK3 (human)): 91%
kinase still bound, per cent of control (MAP3K12 (human)): 94%
kinase still bound, per cent of control (PTK2 (human)): 100%
kinase still bound, per cent of control (RPS6KB1 (human)): 100%
kinase still bound, per cent of control (EPHA4 (human)): 96%
kinase still bound, per cent of control (MAP3K15 (human)): 100%
kinase still bound, per cent of control (MYLK4 (human)): 86%
kinase still bound, per cent of control (MARK4 (human)): 74%
kinase still bound, per cent of control (MAPK14 (human)): 96%
kinase still bound, per cent of control (GAK (human)): 100%
kinase still bound, per cent of control (RIPK2 (human)): 39%
kinase still bound, per cent of control (MERTK (human)): 99%
kinase still bound, per cent of control (BRSK2 (human)): 100%
kinase still bound, per cent of control (NEK11 (human)): 63%
kinase still bound, per cent of control (TAOK2 (human)): 100%
kinase still bound, per cent of control (EIF2AK1 (human)): 100%
kinase still bound, per cent of control (MAPK4 (human)): 100%
kinase still bound, per cent of control (MYLK (human)): 100%
kinase still bound, per cent of control (LATS2 (human)): 100%
kinase still bound, per cent of control (MAPK10 (human)): 100%
kinase still bound, per cent of control [3]: 100%
kinase still bound, per cent of control (IGF1R (human)): 100%
kinase still bound, per cent of control (MAPK11 (human)): 90%
kinase still bound, per cent of control [4]: 91%
kinase still bound, per cent of control (GRK1 (human)): 100%
kinase still bound, per cent of control (LYN (human)): 97%
kinase still bound, per cent of control [5]: 73%
kinase still bound, per cent of control (ERBB3 (human)): 96%
kinase still bound, per cent of control (EPHB3 (human)): 100%
kinase still bound, per cent of control (CDK19 (human)): 98%
kinase still bound, per cent of control [6]: 100%
kinase still bound, per cent of control (PTK2B (human)): 100%
kinase still bound, per cent of control (CDKL2 (human)): 87%
kinase still bound, per cent of control [7]: 100%
